Results reported in patent publication US7423149B2, “Substituted n-aryl amidines as selective D1 dopamine receptor antagonists for the treatment of obesity and CNS disorders” (Schering Corporation, priority 2003, dated 2008).

target: T1, human Dopamine D1 receptor (Homo sapiens, UniProt P21728); assay: radioligand binding competition assay, displacement of [3H]SCH 23390 from D1 receptor (Ltk-cells membranes); settings: class combines Ki (D1) and, for A and B, D2:D1 selectivity (Ki D2 / Ki D1); read-out: D1 binding and D2:D1 Selectivity;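 also: under 5 nM class also requires D2 to D1 selectivity above 500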
T1 construct: expressed in transfected cells; host or cells: Ltk- cells (mouse fibroblasts), membrane preparation
Excerpt: Biological Activity: Compounds from this disclosure have been biologically characterized by their ability to displace a known D1-like selective ligand, [3H]SCH 23390 from the human Dopamine D1 receptor, and a known D2-like selective ligand, [3H] Methylspiperone, from the human Dopamine D2 and D4 receptors.
Affinity values (Ki) of compounds at human dopamine receptors were ascertained using radioligand binding competition assays. Cells expressing D1 (Ltk-cells), D2 (long variant, Ltk-cells), D4 (CHO cells) and D5 (GH4C1 cells) receptors were lysed in hypotonic buffer for membrane preparation. Membranes were incubated with various concentrations of test compound and 1 nM [3H] SCH 23390 (D1 and D5) and 0.2 nM [3H] Methylspiperone for (D2 and D4) assays. Non-specific binding was defined as binding in the presence of 10 micromolar of SCH 23390 for D1 and D5 assays and 10 micromolar butaclamol for D2 and D4 assays. Following incubation to equilibrium (1 hour at room temperature), bound radioligand was separated from free by rapid filtration. Bound radioactivity on the dried filters was quantified by liquid scintillation counting.
Selectivity is determined by dividing Ki for D2, D4 or D5 receptors by Ki for D1 receptor.

T1 sequence (P21728 whole entry): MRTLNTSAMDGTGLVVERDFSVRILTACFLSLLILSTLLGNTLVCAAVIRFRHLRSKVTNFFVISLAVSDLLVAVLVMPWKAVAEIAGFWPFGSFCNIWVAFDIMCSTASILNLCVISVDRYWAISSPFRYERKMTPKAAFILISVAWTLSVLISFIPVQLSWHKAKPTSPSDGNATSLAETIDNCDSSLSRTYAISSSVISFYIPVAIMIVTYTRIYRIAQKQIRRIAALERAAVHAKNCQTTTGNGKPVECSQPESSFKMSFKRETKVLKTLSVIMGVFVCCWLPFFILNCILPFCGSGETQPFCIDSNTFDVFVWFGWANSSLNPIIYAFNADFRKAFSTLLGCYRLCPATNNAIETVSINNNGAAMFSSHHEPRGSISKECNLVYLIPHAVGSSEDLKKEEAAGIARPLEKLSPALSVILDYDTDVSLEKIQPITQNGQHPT

Compound	Ki
COc1ccc(/C=C/C(=N)Nc2cccc(C(F)(F)F)c2)cc1 [Example 1]	50 to 10000 nM
N=C(/C=C/c1cc(C(F)(F)F)cc(C(F)(F)F)c1)Nc1ccc(Cl)cc1 [Example 2]	50 to 10000 nM
N=C(/C=C/c1ccc(Cl)c([N+](=O)[O-])c1)Nc1ccc(Cl)cc1 [Example 3]	50 to 10000 nM
N=C(/C=C/c1ccc(OC(F)(F)F)cc1)Nc1ccc(Cl)cc1 [Example 4]	50 to 10000 nM
N=C(/C=C/c1ccccc1I)Nc1ccc(Cl)cc1 [Example 5]	50 to 10000 nM
N=C(/C=C/c1ccc(CN2CCCCC2)cc1)Nc1ccc(Cl)cc1 [Example 6]	50 to 10000 nM
CC(C)(C)c1ccc(/C=C/C(=N)Nc2ccc(Cl)cc2)cc1 [Example 7]	10 to 50 nM
N=C(/C=C/c1ccc(Cc2cccnc2)cc1)Nc1ccc(O)cc1 [Example 8]	50 to 10000 nM
COc1ccc(NC(=N)/C=C/c2ccc(Cc3cccnc3)cc2)cc1Cl [Example 9]	50 to 10000 nM
CC(C)c1ccc(/C=C/C(=N)Nc2ccc(Cl)cc2)cc1 [Example 10]	10 to 50 nM
N=C(/C=C/c1cccc2ccccc12)Nc1ccc(Cl)cc1 [Example 12]	50 to 10000 nM
N=C(/C=C/c1ccc(Cl)cc1Cl)Nc1ccc(Cl)cc1 [Example 13]	10 to 50 nM
N=C(/C=C/c1ccncc1)Nc1ccc(Cl)cc1 [Example 14]	50 to 10000 nM
N=C(/C=C/c1ccc(Cc2cccnc2)cc1)Nc1ccc2c(c1)CCC2 [Example 15]	10 to 50 nM
N=C(/C=C/c1ccc(-c2ccccc2)cc1)Nc1ccc(Cl)cc1 [Example 16]	10 to 50 nM
COc1ccc(/C=C/C(=N)Nc2cccc(C)c2)cc1 [Example 17]	50 to 10000 nM
COc1ccc(/C=C/C(=N)Nc2ccc(F)c(Cl)c2)cc1 [Example 18]	50 to 10000 nM
N=C(/C=C/c1ccc(Cc2ccccn2)cc1)Nc1ccc(Cl)cc1 [Example 19]	50 to 10000 nM
CC1CCCCN1c1ccc(/C=C/C(=N)Nc2ccc(Cl)cc2)c(Cl)c1 (stereo not drawn) [Example 20]	< 10 nM
N=C(/C=C/c1ccc(-c2ccc3[nH]ccc3c2)cc1)Nc1ccc(Cl)cc1 [Example 21, N-(4-chloro-phenyl)-3-[4-(1H -indol-5-yl)-phenyl]-acrylamidine]	< 10 nM
N=C(/C=C/c1ccc(Cc2cccnc2)cc1)Nc1ccc2c(c1)OCO2 [Example 22]	50 to 10000 nM

Compound	Ki
COc1ccc(/C=C/C(=N)Nc2ccc(Br)cc2)cc1 [Example 23]	10 to 50 nM
N=C(/C=C/c1ccc(Cc2cccnc2)cc1)Nc1ccc(Br)cc1 [Example 24]	10 to 50 nM
N=C(/C=C/c1ccc(-c2ccccn2)cc1)Nc1ccc(Cl)cc1 [Example 25]	10 to 50 nM
COc1ccc2cc(C(=N)Nc3ccc(Cl)cc3)ccc2c1 [Example 26]	50 to 10000 nM
COc1cccc(OC)c1/C=C/C(=N)Nc1ccc(Cl)cc1 [Example 27]	50 to 10000 nM
Cc1ccc(/C=C/C(=N)Nc2ccc(Cl)cc2)cc1 [Example 28]	50 to 10000 nM
COc1ccc(/C=C/C(=N)Nc2ccc(Cl)cc2)c(Cl)c1OC [Example 29]	10 to 50 nM
N#Cc1cccc(-c2ccc(/C=C/C(=N)Nc3ccc(Cl)cc3)cc2)c1 [Example 30]	10 to 50 nM
Cc1ccc(NC(=N)/C=C/c2ccc(Cc3cccnc3)cc2)cc1 [Example 31]	10 to 50 nM
CC1CCCCN1c1ccc(/C=C/C(=N)Nc2ccc(Cl)cc2)cc1 (stereo not drawn) [Example 32]	< 10 nM
CN1CCN(c2ccc(/C=C/C(=N)Nc3ccc(Cl)cc3)c(Cl)c2)CC1 [Example 33]	< 10 nM
C[C@H]1CNCCN1c1ccc(/C=C/C(=N)Nc2ccc(Cl)cc2)c(Cl)c1 [Example 34]	< 5 nM
N=C(/C=C/c1ccc(Cc2ccncc2)cc1)Nc1ccc(Cl)cc1 [Example 35]	10 to 50 nM
N=C(/C=C/c1ccc(N2CCN(Cc3ccccc3)CC2)cc1)Nc1ccc(Cl)cc1 [Example 36]	10 to 50 nM
CN(C)c1ccc(/C=C/C(=N)Nc2ccc(Cl)cc2)cc1 [Example 37]	10 to 50 nM
CCN(CC)c1ccc(/C=C/C(=N)Nc2ccc(Cl)cc2)cc1 [Example 38]	10 to 50 nM
C[C@@H]1CNCCN1c1ccc(/C=C/C(=N)Nc2ccc(Cl)cc2)c(Cl)c1 [Example 39]	< 5 nM
CCN(CC)c1ccc(/C=C/C(=N)Nc2ccc(Cl)cc2)c(Cl)c1 [Example 40]	< 10 nM
N=C(/C=C/c1ccc(-c2cccc([N+](=O)[O-])c2)cc1)Nc1ccc(Cl)cc1 [Example 41]	10 to 50 nM
N#Cc1ccc(-c2ccc(/C=C/C(=N)Nc3ccc(Cl)cc3)cc2)cc1 [Example 43]	< 10 nM
N=C(/C=C/c1ccc(-c2ccc(C=O)cc2)cc1)Nc1ccc(Cl)cc1 [Example 44]	< 10 nM

Compound	Ki
CC(CN1CCN(c2ccc(/C=C/C(=N)Nc3ccc(Cl)cc3)c(Cl)c2)CC1)c1ccccc1 (stereo not drawn) [Example 45]	10 to 50 nM
COC(=O)C1CC1CN1CCN(c2ccc(/C=C/C(=N)Nc3ccc(Cl)cc3)c(Cl)c2)CC1 (stereo not drawn) [Example 46]	10 to 50 nM
N=C(/C=C/c1ccc(N2CCN(Cc3cccs3)CC2)cc1Cl)Nc1ccc(Cl)cc1 [Example 47]	10 to 50 nM
N=C(/C=C/c1ccc(Cc2cccnc2)cc1)Nc1ccc(Cl)cc1 [Example 48]	10 to 50 nM
CC(=O)c1ccc(-c2ccc(/C=C/C(=N)Nc3ccc(Cl)cc3)cc2)cc1 [Example 49]	10 to 50 nM
CN1c2ccccc2Sc2cc(/C=C/C(=N)Nc3ccc(Cl)cc3)ccc21 [Example 50]	10 to 50 nM
COc1cc(N(C)C)ccc1/C=C/C(=N)Nc1ccc(Cl)cc1 [Example 51]	10 to 50 nM
CN1CCN(Cc2ccc(-c3ccc(/C=C/C(=N)Nc4ccc(Cl)cc4)cc3)cc2)CC1 [Example 52]	10 to 50 nM
N=C(/C=C/c1ccc(N2CCN(Cc3cccc(OC(F)(F)F)c3)CC2)cc1Cl)Nc1ccc(Cl)cc1 [Example 53]	10 to 50 nM
COc1ccc(/C=C/C(=N)Nc2ccc(Cl)cc2)c(F)c1 [Example 54]	10 to 50 nM
COc1ccc(/C=C/C(=N)Nc2cc(F)cc(F)c2)cc1 [Example 55]	10 to 50 nM
CCC1CCC(N2CCN(c3ccc(/C=C/C(=N)Nc4ccc(Cl)cc4)c(Cl)c3)CC2)CC1 (stereo not drawn) [Example 56]	10 to 50 nM
N=C(/C=C/c1ccc(Cc2c[nH]cn2)cc1)Nc1ccc(Cl)cc1 [Example 57]	10 to 50 nM
N=C(/C=C/c1ccc(-c2cccc(F)c2)cc1)Nc1ccc(Cl)cc1 [Example 58]	10 to 50 nM
C=Cc1ccc(-c2ccc(/C=C/C(=N)Nc3ccc(Cl)cc3)cc2)cc1 [Example 59]	10 to 50 nM
CCC1CCCCN1c1ccc(/C=C/C(=N)Nc2ccc(Cl)cc2)cc1 (stereo not drawn) [Example 60]	10 to 50 nM
N=C(Nc1ccc(Cl)cc1)c1ccc2cc(N3CCN(Cc4ccccc4)CC3)ccc2c1 [Example 61]	10 to 50 nM
CCOc1ccc(CN2CCN(c3ccc(/C=C/C(=N)Nc4ccc(Cl)cc4)c(Cl)c3)CC2)cc1 [Example 62]	10 to 50 nM
N=C(/C=C/c1ccc(-c2ccsc2)cc1)Nc1ccc(Cl)cc1 [Example 64]	10 to 50 nM
COc1ccc(/C=C/C(=N)Nc2ccc(Cl)cc2)cc1Cl [Example 65]	10 to 50 nM
N=C(Nc1ccc(Cl)cc1)c1ccc2cccc(O)c2n1 [Example 66]	10 to 50 nM

Compound	Ki
N=C(/C=C/c1ccc(Cl)s1)Nc1ccc(Cl)cc1 [Example 67]	10 to 50 nM
N=C(/C=C/c1ccc(-c2ccc(CN3CCNCC3)cc2)cc1)Nc1ccc(Cl)cc1 [Example 68]	10 to 50 nM
COc1ccc(/C=C/C(=N)Nc2ccc(Cl)cc2)cc1OC [Example 69]	10 to 50 nM
COc1ccc(/C=C/C(=N)Nc2ccc(Cl)cc2)cc1 [Example 70]	10 to 50 nM
N=C(Nc1ccc(Cl)cc1)c1ccc2cc(N3CCNCC3)ccc2c1 [Example 71]	10 to 50 nM
N=C(/C=C/c1ccc2c(c1)OCO2)Nc1ccc(Cl)cc1 [Example 72]	10 to 50 nM
N=C(/C=C/c1ccccc1Cl)Nc1ccc(Cl)cc1 [Example 73]	10 to 50 nM
N=C(/C=C/c1ccc(N2CCN(C3CCCC(C(F)(F)F)C3)CC2)cc1Cl)Nc1ccc(Cl)cc1 (stereo not drawn) [Example 74]	10 to 50 nM
CC(C)(C)OC(=O)N1CCN(Cc2ccc(-c3ccc(/C=C/C(=N)Nc4ccc(Cl)cc4)cc3)cc2)CC1 [Example 75]	50 to 10000 nM
N=C(/C=C/c1ccccc1Br)Nc1ccc(Cl)cc1 [Example 76]	50 to 10000 nM
CC(C)N1CCN(c2ccc(/C=C/C(=N)Nc3ccc(Cl)cc3)c(Cl)c2)CC1 [Example 77]	50 to 10000 nM
N=C(/C=C/c1ccc2ccccc2c1)Nc1ccc(Cl)cc1 [Example 78]	50 to 10000 nM
N=C(Nc1ccc(Cl)cc1)c1ccc2nc(N3CCNCC3)ccc2c1 [Example 79]	50 to 10000 nM
N=C(/C=C/c1ccc(Cl)cc1)Nc1ccc(Cl)cc1 [Example 80]	50 to 10000 nM
COc1ccc(/C=C\C(=N)Nc2ccc(Cl)cc2)cc1 [Example 81]	50 to 10000 nM
COc1ccc(/C=C/C(=N)Nc2cccc([N+](=O)[O-])c2)cc1 [Example 82]	50 to 10000 nM
CCC(C)CN1CCN(c2ccc(/C=C/C(=N)Nc3ccc(Cl)cc3)c(Cl)c2)CC1 (stereo not drawn) [Example 83]	50 to 10000 nM
N=C(/C=C/c1ccc(N2CCCCC2)cc1)Nc1ccc(Cl)cc1 [Example 84]	50 to 10000 nM
COc1ccc(/C=C\C(=N)Nc2ccc(Cl)cc2)c(F)c1 [Example 85]	50 to 10000 nM
N=C(/C=C/c1ccc(N2CCOCC2)cc1)Nc1ccc(Cl)cc1 [Example 86]	50 to 10000 nM
N=C(/C=C/c1ccc(-c2ccc(CN3CCN(Cc4ccccc4)CC3)cc2)cc1)Nc1ccc(Cl)cc1 [Example 87]	50 to 10000 nM
